Data: patent US20260035403A1, “NUCLEOSIDE LINE-1 INHIBITORS” (TRANSPOSON THERAPEUTICS, INC., priority 2022, published 2026)

Test system: human LINE-1
Assay: Human LINE-1 retrotransposition assay (HeLa cell-based dual-luciferase reporter)
Settings: Human LINE-1 activity inhibition, HeLa cells, reporter plasmid pYX017, Firefly/Renilla, 72 h incubation
Method: Representative Compounds of the Disclosure were tested for inhibition of retrotransposition activity of human LINE-1 in HeLa cells according to the following procedure.
HeLa cervical cancer cells were cultivated at 37° C. in a humidified 5% CO2 incubator in Dulbecco's Modified Eagle's Medium (DMEM)—high glucose, with 4500 mg/L glucose, L-glutamine, sodium pyruvate and sodium bicarbonate (Sigma), supplemented with 10% of heat inactivated fetal bovine serum (Thermo Fisher).
Assays were performed using reporter plasmid pYX017 as described (Xie, et al., 2011) with several modifications. The reporter assay was performed in 96-well white optical bottom plates. HeLa cells were seeded in wells 24 h prior to transfection and compound treatment so that cells were approximately 30% confluent on the day of transfection. Different cell plating densities were tested and a density of 2×10^3 cells was determined to be optimal.
Compounds were resuspended in DMSO. Serial dilutions (1:3) were prepared in DMSO. Medium containing different concentrations of the compounds were prepared by adding 2 μl of the compound dilution to 1 ml of the culture medium. The final concentration of DMSO in the medium was 0.2%.
FuGENE® HD transfection reagent (Promega, E2311, Lot 382574 and Lot 397842) was used to transfect the plasmids into the cells. The transfection reagent: DNA mixture was prepared in OpiMEM (Thermo Fisher) according to manufacturer's instructions. Different ratios of transfection reagent to DNA were tested and a ratio of 3:1 was determined to be optimal. Culture medium was removed from the cells and discarded. The transfection reagent: DNA mixture (5 μl) was mixed with the compound containing medium (100 μl/well) and this was added onto the cells of each well. Cells were incubated at 37° C./5% CO2 for different incubation time. A 72 h incubation time was determined to be optimal.
Luciferase reporter activity was quantified with the Dual-Luciferase® Reporter Assay System (Promega) according to manufacturer's instructions for multiwell plates except that cells were lysed directly on the multiwell plate with 30 μl of the passive lysis buffer (PLB) for 20 min at room temperature, with gentle shaking to ensure complete cell lysis.
Firefly and Renilla luciferase signals were measured using a SpectraMax i3× Multi-Mode Microplate Reader. Integration times of 100 ms and 10 ms were used to measure the Firefly and Renilla signals respectively. Relative L1 activity is calculated as Firefly/Renilla*1000 or Firefly/Renilla*10,000. Dose response inhibition data were fit to a four parameter logistic equation using non-linear regression (using Graphpad Prism 8), to determine IC50 values for each inhibitor.

IC50 (Homo sapiens, HeLa, 72 h)	IC50	SMILES
3.81 µM	–	C#C[C@]1(CO)OC(n2cc(F)c(=O)[nH]c2=O)C[C@@H]1O (stereo partly drawn) [compound 45, 1-((4S,5R)-5-ethynyl-4-hydroxy-5-(hydroxymethyl)tetrahydrofuran-2-yl)-5-fluoropyrimidine-2,4(1H,3H)-dione]
0.062 µM	–	CC[C@]1(CO)O[C@@H](n2cnc3c(O)ncnc32)C[C@@H]1O [Cpd. No. 1]
0.041 µM	–	C#C[C@]1(CO)O[C@H](n2nc(C)c3c(N)nc(F)nc32)C[C@@H]1O [Cpd. No. 3, (2R,3S,5S)-5-(4-amino-6-fluoro-3-methyl-1H-pyrazolo[3,4-d]pyrimidin-1-yl)-2-ethynyl-2-(hydroxymethyl)tetrahydrofuran-3-ol]
5.65 µM	–	C#C[C@]1(CO)OC(n2cc(Br)c(N)nc2=O)C[C@@H]1O (stereo partly drawn) [compound 60, 4-amino-5-bromo-1-((4S,5R)-5-ethynyl-4-hydroxy-5-(hydroxymethyl)tetrahydrofuran-2-yl)pyrimidin-2(1H)-one]
1.28 µM	–	C=C[C@]1(CO)O[C@H](n2ccc(N)nc2=O)C[C@@H]1O [compound 89, 4-amino-1-((2S,4S,5R)-4-hydroxy-5-(hydroxymethyl)-5-vinyltetrahydrofuran-2-yl)pyrimidin-2(1H)-one]
14 µM	–	COc1nc(N)nc2c1ncn2[C@H]1C[C@H](O)[C@](CO)(CF)O1 [compound 163, (2R,3S,5R)-5-(2-amino-6-methoxy-9H-purin-9-yl)-2-(fluoromethyl)-2-(hydroxymethyl)tetrahydrofuran-3-ol]
1.78 µM	–	C=C[C@]1(CO)O[C@@H](n2cnc3c(OC)nc(N)nc32)C[C@@H]1O [Cpd. No. 102, (2R,3S,5R)-5-(2-amino-6-methoxy-9H-purin-9-yl)-2-(hydroxymethyl)-2-vinyltetrahydrofuran-3-ol]
5.53 µM	–	CC[C@]1(CO)O[C@@H](n2cnc3c(NC4CC4)nc(F)nc32)C[C@@H]1O [Cpd. No. 99, (2R,3S,5R)-5-(6-(cyclopropylamino)-2-fluoro-9H-purin-9-yl)-2-ethyl-2-(hydroxymethyl)tetrahydrofuran-3-ol]
> 50 µM	–	C#C[C@]1(CO)OC(n2cc(C#N)c(=O)[nH]c2=O)C[C@@H]1O (stereo partly drawn) [compound 58, 1-((4S,5R)-5-ethynyl-4-hydroxy-5-(hydroxymethyl)tetrahydrofuran-2-yl)-2,4-dioxo-1,2,3,4-tetrahydropyrimidine-5-carbonitrile]
3.67 µM	–	C=C[C@]1(CO)O[C@@H](n2cc(C)c(=O)[nH]c2=O)C[C@@H]1O [Cpd. No. 62, 1-((2R,4S,5R)-4-hydroxy-5-(hydroxymethyl)-5-vinyltetrahydrofuran-2-yl)-5-methylpyrimidine-2,4(1H,3H)-dione]
9.93 µM	–	C=C[C@]1(CO)O[C@@H](n2cc(Br)c(=O)[nH]c2=O)C[C@@H]1O [Cpd. No. 64, 5-bromo-1-((2R,4S,5R)-4-hydroxy-5-(hydroxymethyl)-5-vinyltetrahydrofuran-2-yl)pyrimidine-2,4(1H,3H)-dione]
2.2 µM	–	C#C[C@]1(CO)OC(n2cc(Br)c(=O)[nH]c2=O)C[C@@H]1O (stereo partly drawn) [compound 44, 5-bromo-1-((4S,5R)-5-ethynyl-4-hydroxy-5-(hydroxymethyl)tetrahydrofuran-2-yl)pyrimidine-2,4(1H,3H)-dione]
0.259 µM	–	C#C[C@]1(CO)O[C@@H](n2cnc3c(OC)nc(N)nc32)C[C@@H]1O [compound 101, (2R,3S,5R)-5-(2-amino-6-methoxy-9H-purin-9-yl)-2-ethynyl-2-(hydroxymethyl)tetrahydrofuran-3-ol]
> 50 µM	–	Cc1cn([C@H]2C[C@@H](O)[C@@](C)(CO)O2)c(=O)[nH]c1=O [compound 23, 1-((2R,4R,5R)-4-hydroxy-5-(hydroxymethyl)-5-methyltetrahydrofuran-2-yl)-5-methylpyrimidine-2,4(1H,3H)-dione]
14 µM	–	C#C[C@]1(CO)O[C@H](n2cnc3c(NC4CC4)nc(F)nc32)C[C@@H]1O [compound 84, (2R,3S,5S)-5-(6-(cyclopropylamino)-2-fluoro-9H-purin-9-yl)-2-ethynyl-2-(hydroxymethyl)tetrahydrofuran-3-ol]
0.432 µM	–	CC[C@]1(CO)OC(n2cc(Br)c(N)nc2=O)C[C@@H]1O (stereo partly drawn) [Cpd. No. 70, 4-amino-5-bromo-1-((4S,5R)-5-ethyl-4-hydroxy-5-(hydroxymethyl)tetrahydrofuran-2-yl)pyrimidin-2(1H)-one]
> 50 µM	–	C#C[C@@]1(CO)C=C[C@H](n2cc(C)c(N)nc2=O)O1 [compound 42, 4-amino-1-((2R,5R)-5-ethynyl-5-(hydroxymethyl)-2,5-dihydrofuran-2-yl)-5-methylpyrimidin-2(1H)-one]
0.876 µM	–	C#C[C@]1(CO)OC(n2cc(C)c(=O)[nH]c2=O)C[C@@H]1O (stereo partly drawn) [compound 43, 1-((4S,5R)-5-ethynyl-4-hydroxy-5-(hydroxymethyl)tetrahydrofuran-2-yl)-5-methylpyrimidine-2,4(1H,3H)-dione]
> 50 µM	–	C#C[C@@]1(CO)C=C[C@H](n2cc(F)c(N)nc2=O)O1 [compound 40, 4-amino-1-((2R,5R)-5-ethynyl-5-(hydroxymethyl)-2,5-dihydrofuran-2-yl)-5-fluoropyrimidin-2(1H)-one]
5.08 µM	–	C#C[C@]1(CO)OC(n2ccc(=O)[nH]c2=O)C[C@@H]1O (stereo partly drawn) [compound 51, 1-((4S,5R)-5-ethynyl-4-hydroxy-5-(hydroxymethyl)tetrahydrofuran-2-yl)pyrimidine-2,4(1H,3H)-dione]
7 µM	–	CC[C@]1(CO)O[C@@H](n2cnc3c(NC4CC4)ncnc32)C[C@@H]1O [Cpd. No. 96, (2R,3S,5R)-5-(6-(cyclopropylamino)-9H-purin-9-yl)-2-ethyl-2-(hydroxymethyl)tetrahydrofuran-3-ol]
0.11 µM	–	CC[C@]1(CO)O[C@@H](n2cnc3c(OC)nc(N)nc32)C[C@@H]1O [Cpd. No. 125, (2R,3S,5R)-5-(2-amino-6-methoxy-9H-purin-9-yl)-2-ethyl-2-(hydroxymethyl)tetrahydrofuran-3-ol]
–	> 50 µM	C#C[C@@]1(CO)C=C[C@H](n2cc(F)c(=O)[nH]c2=O)O1 [Cpd. No. 19, 1-((2R,5R)-5-ethynyl-5-(hydroxymethyl)-2,5-dihydrofuran-2-yl)-5-fluoropyrimidine-2,4(1H,3H)-dione]
> 50 µM	–	C#C[C@@]1(CO)C=C[C@H](n2cc(SC(F)(F)F)c(=O)[nH]c2=O)O1 [compound 73, 1-((2R,5R)-5-ethynyl-5-(hydroxymethyl)-2,5-dihydrofuran-2-yl)-5-((trifluoromethyl)thio)pyrimidine-2,4(1H,3H)-dione]
0.738 µM	–	C=C[C@]1(CO)OC(n2cc(OC)c(=O)[nH]c2=O)C[C@@H]1O (stereo partly drawn) [compound 66, 1-((4S,5R)-4-hydroxy-5-(hydroxymethyl)-5-vinyltetrahydrofuran-2-yl)-5-methoxypyrimidine-2,4(1H,3H)-dione]
0.122 µM	–	CC[C@]1(CO)O[C@@H](n2cnc3c(N)ncnc32)[C@@H](F)[C@@H]1O [compound 192, (2R,3R,4S,5R)-5-(6-amino-9H-purin-9-yl)-2-ethyl-4-fluoro-2-(hydroxymethyl)tetrahydrofuran-3-ol]
> 12.5 µM	–	CC[C@]1(CO)O[C@@H](n2cc(OC)c(=O)[nH]c2=O)C[C@@H]1O [Cpd. No. 103, 1-((2R,4S,5R)-5-ethyl-4-hydroxy-5-(hydroxymethyl)tetrahydrofuran-2-yl)-5-methoxypyrimidine-2,4(1H,3H)-dione]
